The source of these data is BindingDB's records for doi:10.1016/j.bmcl.2004.04.105 (Institut Henri Beaufour, 2004).

Assay [1] in a line: Inhibitory activity against on calpain in C6 glial cells.
A short description of assay [2]: Inhibitory activity against on calpain 1 in C6 glial cells.

In assay [1], `CC(C)C[C@H](NC(=O)c1ccc2c(c1)Nc1ccccc1S2)C(=O)N[C@H]1CCOC1O` (some centres not stated) displayed an IC50 of 23.5 µM. For `CC(=O)OC1OCC[C@@H]1NC(=O)[C@H](CC(C)C)NC(=O)c1ccc2c(c1)Nc1ccccc1S2` (some centres not stated), half-maximal inhibition in assay [2] (IC50) required 13.3 µM.

Broadly, the IC50 is the concentration at which inhibition is half-maximal. A low value points to greater potency.
